Source: PubChem BioAssay AID256 (DTP/NCI, 2004)
Values joined by “and” are separate entries in the source; they are usually repeats but may differ in a detail not shown here. Identical values can stand only once. Inconclusive results and toxic doses are left out.

Tested on: CD2F1 mice, L1210 leukemia ip, survival T/C
Assay: NCI In Vivo Anticancer Drug Screen. Data for tumor model L1210 Leukemia (intraperitoneal) in CD2F1 (CDF1) mice
Details: higher = longer survival
Method in brief: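 Vehicle-treated tumor-bearing mice served as controls (C) for compound-treated mice (T). Reported figure is T divided by C.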

[1] = endpoint: mean survival time, dose: 100.0 mg/kg/injection, schedule: Q01DX001 (ip), vehicle: saline with Tween-80
[2] = endpoint: mean survival time, dose: 200.0 mg/kg/injection, schedule: Q01DX001 (ip), vehicle: saline with Tween-80
[3] = endpoint: mean survival time, dose: 400.0 mg/kg/injection, schedule: Q01DX001 (ip), vehicle: saline with Tween-80
[4] = endpoint: mean survival time, dose: 100.0 mg/kg/injection, schedule: Q01DX009 (ip), vehicle: saline with Tween-80
[5] = endpoint: mean survival time, dose: 200.0 mg/kg/injection, schedule: Q01DX009 (ip), vehicle: saline with Tween-80
[6] = endpoint: mean survival time, dose: 400.0 mg/kg/injection, schedule: Q01DX009 (ip), vehicle: saline with Tween-80

SMILES: CCOC(=O)c1cnc(SC)nc1NCc1cccc(C)c1
- T/C [1]: 98 % of control
- T/C [2]: 96 % of control
- T/C [3]: 91 % of control

SMILES: CC(=O)NC(C)(C)Cc1ccccc1
- T/C [1]: 101 % of control
- T/C [2]: 117 % of control
- T/C [3]: 106 % of control

SMILES: O=C1CCCC2C(=O)CCCC12 (centres undefined)
- T/C [4]: 97 % of control
- T/C [5]: 103 % of control
- T/C [6]: 103 % of control

SMILES: Cc1ccc(C(C#N)Nc2ccccc2)cc1 (centres undefined)
- T/C [4]: 103 % of control
- T/C (endpoint: mean survival time, dose: 100.0 mg/kg/injection, schedule: Q04DX003 (ip), vehicle: saline with Tween-80): 100 % of control
- T/C [5]: 88 % of control
- T/C (endpoint: mean survival time, dose: 200.0 mg/kg/injection, schedule: Q04DX003 (ip), vehicle: saline with Tween-80): 91 % of control
- T/C [6]: 93 % of control
- T/C (endpoint: mean survival time, dose: 400.0 mg/kg/injection, schedule: Q04DX003 (ip), vehicle: saline with Tween-80): 97 % of control

SMILES: c1ccc(C2CC2c2ccccc2)cc1 (centres undefined)
- T/C (endpoint: mean survival time, dose: 75.0 mg/kg/injection, schedule: Q01DX001 (ip), vehicle: saline): 100 % of control
- T/C (endpoint: mean survival time, dose: 150.0 mg/kg/injection, schedule: Q01DX001 (ip), vehicle: saline): 96 % of control
- T/C (endpoint: mean survival time, dose: 300.0 mg/kg/injection, schedule: Q01DX001 (ip), vehicle: saline): 98 % of control

SMILES: COC12[C@@H]3N[C@@H]3CN1C1=C(C(=O)C(NCCSSCCNC3=C(C)C(=O)C4=C(C3=O)C(COC(N)=O)[C@]3(OC)C5N[C@@H]5CN43)=C(C)C1=O)[C@@H]2COC(N)=O (some centres undefined)
- T/C (endpoint: mean survival time, dose: 1.5 mg/kg/injection, schedule: Q01DX001 (ip), vehicle: distilled water + Tween-80): 109 % of control
- T/C (endpoint: mean survival time, dose: 1.5 mg/kg/injection, schedule: Q01DX001 (ip), vehicle: water): 110 % of control
- T/C (endpoint: mean survival time, dose: 3.0 mg/kg/injection, schedule: Q01DX001 (ip), vehicle: water): 121 % of control
- T/C (endpoint: mean survival time, dose: 6.0 mg/kg/injection, schedule: Q01DX001 (ip), vehicle: water): 122 % of control
- T/C (endpoint: mean survival time, dose: 12.0 mg/kg/injection, schedule: Q01DX001 (ip), vehicle: distilled water + Tween-80): 162 % of control
- T/C (endpoint: mean survival time, dose: 12.0 mg/kg/injection, schedule: Q01DX001 (ip), vehicle: water): 151 % of control
- T/C (endpoint: mean survival time, dose: 24.0 mg/kg/injection, schedule: Q01DX001 (ip), vehicle: water): 104 % of control
- T/C (endpoint: median survival time, dose: 0.05 mg/kg/injection, schedule: Q01DX009 (ip), vehicle: other): 108 % of control
- T/C (endpoint: median survival time, dose: 0.1 mg/kg/injection, schedule: Q01DX009 (ip), vehicle: other): 119 % of control
- T/C (endpoint: median survival time, dose: 0.2 mg/kg/injection, schedule: Q01DX009 (ip), vehicle: other): 119 % of control
- T/C (endpoint: median survival time, dose: 0.2 mg/kg/injection, schedule: Q04DX003 (ip), vehicle: other): 104 % of control
- T/C (endpoint: median survival time, dose: 0.4 mg/kg/injection, schedule: Q01DX001 (ip), vehicle: other): 119 % of control
- T/C (endpoint: median survival time, dose: 0.4 mg/kg/injection, schedule: Q04DX003 (ip), vehicle: other): 110 % of control
- T/C (endpoint: median survival time, dose: 0.8 mg/kg/injection, schedule: Q01DX001 (ip), vehicle: other): 116 % of control
- T/C (endpoint: median survival time, dose: 0.8 mg/kg/injection, schedule: Q04DX003 (ip), vehicle: other): 124 % of control
- T/C (endpoint: median survival time, dose: 1.6 mg/kg/injection, schedule: Q03DX003 (ip), vehicle: other): 151 % of control
- T/C (endpoint: median survival time, dose: 3.2 mg/kg/injection, schedule: Q01DX009 (ip), vehicle: other): 161 % of control
- T/C (endpoint: median survival time, dose: 3.2 mg/kg/injection, schedule: Q03DX003 (ip), vehicle: other): 154 % of control and 176 % of control
- T/C (endpoint: median survival time, dose: 3.2 mg/kg/injection, schedule: Q04DX003 (ip), vehicle: other): 165 % of control
- T/C (endpoint: median survival time, dose: 6.4 mg/kg/injection, schedule: Q01DX009 (ip), vehicle: other): 124 % of control
- T/C (endpoint: median survival time, dose: 6.4 mg/kg/injection, schedule: Q03DX003 (ip), vehicle: other): 173 % of control and 187 % of control
- T/C (endpoint: median survival time, dose: 6.4 mg/kg/injection, schedule: Q04DX003 (ip), vehicle: other): 178 % of control
- T/C (endpoint: median survival time, dose: 9.6 mg/kg/injection, schedule: Q01DX001 (ip), vehicle: other): 168 % of control
- T/C (endpoint: median survival time, dose: 9.6 mg/kg/injection, schedule: Q03DX003 (ip), vehicle: other): 154 % of control
- T/C (endpoint: median survival time, dose: 9.6 mg/kg/injection, schedule: Q04DX003 (ip), vehicle: other): 169 % of control
- T/C (endpoint: median survival time, dose: 19.2 mg/kg/injection, schedule: Q01DX001 (ip), vehicle: other): 160 % of control
